System: male Sprague-Dawley rats
Assay: Inhibition of the reflex depressor response to colorectal distension in anaesthetised rats
Format: in vivo, rat
Conditions: for Fall in arterial blood pressure (mean absolute decrease in mean arterial pressure, standard error of mean in brackets) evoked by distension of the balloon: following MCI-225 3 mg/kg i.v.
Source text: The data on which this invention is based will now be described. In a study using intact animals, the ability of a drug to inhibit the reflex depressor response to colorectal distension can be assessed. In this model, an inhibition of the reflex indicates modulation of visceral nociceptive neurotransmission and, therefore, the use of the drug in functional bowel disease (e.g. IBS); see Kozlowski et al, 2000, Gut 46, 474-480. Allodynia and visceral pain are important components of functional bowel disease.
Experiments were performed on male Sprague-Dawley rats (250-300 g). Anaesthesia was induced with isoflurane (2.5% in oxygen) and maintained with alpha chlorolose (80 mg/kg i.v.). The left carotid artery was cannulated for the measurement of blood pressure and heart rate and the left jugular vein cannulated for drug administration. A tracheal cannula was implanted for artificial respiration if required. A 10 mm long latex balloon was inserted intrarectally so that the tip of the balloon was 20 mm from the anal verge (Kozlowski et al, supra). The balloon was connected via a double lumen cannula to a pressure transducer and also to a saline-filled syringe for inflation/deflation of the balloon. Throughout the experiment, body temperature was kept constant at 36-38 C using a homeothermic blanket.
Once stable baseline parameters were obtained (approximately after 20 minutes), the balloon was rapidly inflated with increasing volumes of saline (0.5-2.5 ml) for 30 seconds at 5 minute intervals, and the resultant change in blood pressure recorded. Three distinct response curves were constructed, with a 10 minute stabilisation period between each curve. In one group of animals, 10 minutes prior to the commencement of the final distension response curve, a single bolus of MCI-225 (3 mg/kg) was administered intravenously; in a second group of animals, a single bolus dose of vehicle was administered. The effect of MCI-225 and vehicle was determined by analysing the changes in colorectal distension that evoked depressor response.

Q: How did the “Effect on distension-induced falls in blood pressure (in words)” value (3 mg/kg i.v., colorectal balloon distension) turn out when `Cc1cc2c(-c3ccccc3F)nc(N3CCNCC3)nc2s1.Cl.O` [MCI-225, 4-(2-Fluorophenyl)-6-methyl-2-(1-piperazinyl)thieno[2,3-D]pyrimidine monohydrate hydrochloride] was run?
A: inhibited the distension-induced falls in blood pressure

Q: What about the “Fall in arterial blood pressure (mean absolute decrease in mean arterial pressure, standard error of mean in brackets) evoked by distension of the balloon” value (0.5 ml balloon volume, n=6) of the same molecule?
A: 2.2 (1.65) mmHg

Q: What about the “Fall in arterial blood pressure (mean absolute decrease in mean arterial pressure, standard error of mean in brackets) evoked by distension of the balloon” value (1.0 ml balloon volume, n=6) of the same molecule?
A: 6.3 (2.6) mmHg

Q: And the “Fall in arterial blood pressure (mean absolute decrease in mean arterial pressure, standard error of mean in brackets) evoked by distension of the balloon” value (1.5 ml balloon volume, n=6)?
A: 10.6 (3.9) mmHg

Q: And the “Fall in arterial blood pressure (mean absolute decrease in mean arterial pressure, standard error of mean in brackets) evoked by distension of the balloon” value (2.0 ml balloon volume, n=6, p less than 0.01 vs before drug (paired t test))?
A: 15.3 (5.4) mmHg

Q: What about the “Fall in arterial blood pressure (mean absolute decrease in mean arterial pressure, standard error of mean in brackets) evoked by distension of the balloon” value (2.5 ml balloon volume, n=5, p less than 0.05 vs before drug (paired t test)) of the same molecule?
A: 24.6 (7.3) mmHg

From patent US7470690B2, “4-(2-Fluorophenyl)-6-methyl-2-(1-piperazinyl)thieno[2,3-D)pyrimidine in the treatment of functional bowel disorder” (Dynogen Pharmaceuticals, Inc., priority 2002, dated 2008)
